Assay [1] concerns the target T1, IRAK4 (Homo sapiens (Human), UniProt Q9NWZ3). The assay can be described thus: IRAK4 Degradation HiBiT Assay. Conditions: multiple runs, HiBiT-tagged Jurkat cells, 4 hrs; for DC50: read-out: Cellular IRAK4 HiBiT: DC50; for Dmax: Jurkat, read-out: Cellular IRAK4 HiBiT: Dmax, Table 5.
Target sequence in this assay (Q9NWZ3 whole entry): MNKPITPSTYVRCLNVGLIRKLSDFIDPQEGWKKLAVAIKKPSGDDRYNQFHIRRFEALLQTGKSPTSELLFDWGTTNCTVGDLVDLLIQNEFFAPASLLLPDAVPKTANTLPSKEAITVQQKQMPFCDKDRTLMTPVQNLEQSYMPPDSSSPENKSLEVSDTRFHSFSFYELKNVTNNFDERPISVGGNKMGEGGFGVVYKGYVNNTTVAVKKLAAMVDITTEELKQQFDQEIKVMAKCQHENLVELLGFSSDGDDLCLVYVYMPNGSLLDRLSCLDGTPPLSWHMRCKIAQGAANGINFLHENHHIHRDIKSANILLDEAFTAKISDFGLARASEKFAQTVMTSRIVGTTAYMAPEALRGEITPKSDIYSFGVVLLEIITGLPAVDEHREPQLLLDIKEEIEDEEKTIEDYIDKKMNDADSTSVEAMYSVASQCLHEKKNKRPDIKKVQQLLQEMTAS
The target of assay [2] is T1, IRAK4. The experiment in a line: IRAK4 Biochemical HTRF Kinase Assay. Conditions: Table 5; multiple runs; read-out: IRAK4 HTRF biochemical: IC50. In outline:
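HTRF KinEASE STK S1 format measuring IRAK4 phosphorylation of biotinylated peptide; reaction solution of 5 μM STK-S1, 10 mM ATP, 10 mM MgCl2 added (stock, to 10 μl final), 90 min at ambient temperature, detection 60 min. IC50 from sixteen-point duplicate curves by non-linear regression.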
Target sequence in this assay (Q9NWZ3 whole entry, species assumed): as the sequence (Q9NWZ3 whole entry) above

The structures appear in SMILES notation.

As for `CNc1cc(-c2ccc3cc(C#N)cnn23)ncc1-c1nnc(C23CCC(NC(=O)[C@H]4CC[C@H](C(=O)N[C@H](C(=O)N5C[C@H](O)C[C@H]5C(=O)NCc5ccc(-c6scnc6C)cc5)C(C)(C)C)CC4)(CC2)CC3)s1` [Example 130, (1S,4r)-N1-(4-(5-(6-(3-cyanopyrrolo[1,2-b]pyridazin-7-yl)-4-(methylamino)pyridin-3-yl)-1,3,4-thiadiazol-2-yl)bicyclo[2.2.2]octan-1-yl)-N4—((S)-1-((2S,4R)-4-hydroxy-2-((4-(4-methylthiazol-5-yl)benzyl)carbamoyl)pyrrolidin-1-yl)-3,3-dimethyl-1-oxobutan-2-yl)cyclohexane-1,4-dicarboxamide], at IRAK4 [1] (Table 5), the “Cellular IRAK4 HiBiT: Dmax” value amounted to 110% and the DC50 – broadly, the concentration giving 50% degradation – was 126 nM. In addition, the IC50 (commonly the point on the concentration scale where inhibition reaches its midpoint) on IRAK4 [2] worked out at 1.8 nM.
For `CNc1cc(-c2ccc3cc(C#N)cnn23)ncc1-c1nnc(C23CCC(NC(=O)CCCCCC(=O)N[C@H](C(=O)N4C[C@H](O)C[C@H]4C(=O)N[C@@H](C)c4ccc(-c5scnc5C)cc4)C(C)(C)C)(CC2)CC3)s1` [Example 131, N1-(4-(5-(6-(3-cyanopyrrolo[1,2-b]pyridazin-7-yl)-4-(methylamino)pyridin-3-yl)-1,3,4-thiadiazol-2-yl)bicyclo[2.2.2]octan-1-yl)-N7-((S)-1-((2S,4R)-4-hydroxy-2-(((S)-1-(4-(4-methylthiazol-5-yl)phenyl)ethyl)carbamoyl)pyrrolidin-1-yl)-3,3-dimethyl-1-oxobutan-2-yl)heptanediamide], on IRAK4 [1], the Dmax (as a rule, the greatest extent of degradation seen) was 109%. On IRAK4 [1] (Table 5), the 50% degradation concentration (DC50) was determined as 124 nM. At IRAK4 [2], the IC50 worked out at 2.1 nM.
On to `CNc1cc(-c2ccc3cc(C#N)cnn23)ncc1-c1nnc(N2CCN(C3CCN(C(=O)c4ccc(C(=O)NC5CCC(=O)NC5=O)cc4)CC3)CC2)s1` (stereo not shown) [Example 132, 4-(4-(4-(5-(6-(3-cyanopyrrolo[1,2-b]pyridazin-7-yl)-4-(methylamino)pyridin-3-yl)-1,3,4-thiadiazol-2-yl)piperazin-1-yl)piperidine-1-carbonyl)-N-(2,6-dioxopiperidin-3-yl)benzamide], for which the DC50 at IRAK4 [1] (Table 5) is > 9980 nM. Further, the IC50 on IRAK4 [2] was found to be 0.6 nM.
Turning to `CNc1cc(-c2ccc3cc(C#N)cnn23)ncc1-c1nnc([C@H]2CC[C@@H](NC(=O)C3CCN(c4ccc5c(c4)C(=O)N(C4CCC(=O)NC4=O)C5=O)CC3)CC2)s1` (stereo partly shown) [Example 133, N-((1s,4s)-4-(5-(6-(3-cyanopyrrolo[1,2-b]pyridazin-7-yl)-4-(methylamino)pyridin-3-yl)-1,3,4-thiadiazol-2-yl)cyclohexyl)-1-(2-(2,6-dioxopiperidin-3-yl)-1,3-dioxoisoindolin-5-yl)piperidine-4-carboxamide], the Dmax at IRAK4 [1] was 111%. Besides, the DC50 at IRAK4 [1] (Table 5) came to 51.4 nM. At IRAK4 [2], the IC50 is 0.9 nM.
The matching figures for `CNc1cc(-c2ccc3cc(C#N)cnn23)ncc1-c1nnc(C23CCC(NC(=O)C4CCN(c5ccc6c(c5)C(=O)N(C5CCC(=O)NC5=O)C6=O)CC4)(CC2)CC3)s1` (stereo not shown) [Example 134, N-(4-(5-(6-(3-cyanopyrrolo[1,2-b]pyridazin-7-yl)-4-(methylamino)pyridin-3-yl)-1,3,4-thiadiazol-2-yl)bicyclo[2.2.2]octan-1-yl)-1-(2-(2,6-dioxopiperidin-3-yl)-1,3-dioxoisoindolin-5-yl)piperidine-4-carboxamide]: 103%, 64.1 nM and 0.9 nM.
For `CNc1cc(-c2ccc3cc(C#N)cnn23)ncc1-c1nnc([C@H]2CC[C@@H](NC(=O)C3CCN(c4cccc5c4C(=O)N(C4CCC(=O)NC4=O)C5=O)CC3)CC2)s1` (stereo partly shown) [Example 135, N-((1s,4s)-4-(5-(6-(3-cyanopyrrolo[1,2-b]pyridazin-7-yl)-4-(methylamino)pyridin-3-yl)-1,3,4-thiadiazol-2-yl)cyclohexyl)-1-(2-(2,6-dioxopiperidin-3-yl)-1,3-dioxoisoindolin-4-yl)piperidine-4-carboxamide], in that order: 46%, 774 nM and 1 nM.
The matching figures for `CNc1cc(-c2ccc3cc(C#N)cnn23)ncc1-c1nnc([C@H]2CC[C@H](N(C)C(=O)CN3CCN(c4ccc5c(c4)C(=O)N(C4CCC(=O)NC4=O)C5=O)CC3)CC2)s1` (stereo partly shown) [Example 137, N-((1r,4r)-4-(5-(6-(3-cyanopyrrolo[1,2-b]pyridazin-7-yl)-4-(methylamino)pyridin-3-yl)-1,3,4-thiadiazol-2-yl)cyclohexyl)-2-(4-(2-(2,6-dioxopiperidin-3-yl)-1,3-dioxoisoindolin-5-yl)piperazin-1-yl)-N-methylacetamide]: 108%, 19.1 nM and 22.6 nM.
For `CNc1cc(-c2ccc3cc(C#N)cnn23)ncc1-c1nnc([C@H]2CC[C@H](NC(=O)C3CN(C4CCN(c5ccc6c(c5)C(=O)N(C5CCC(=O)NC5=O)C6=O)CC4)C3)CC2)s1` (stereo partly shown) [Example 138, N-((1r,4r)-4-(5-(6-(3-cyanopyrrolo[1,2-b]pyridazin-7-yl)-4-(methylamino)pyridin-3-yl)-1,3,4-thiadiazol-2-yl)cyclohexyl)-1-(1-(2-(2,6-dioxopiperidin-3-yl)-1,3-dioxoisoindolin-5-yl)piperidin-4-yl)azetidine-3-carboxamide], the Dmax on IRAK4 [1] amounted to 116%. The DC50 on IRAK4 [1] (Table 5) is 65.5 nM. At IRAK4 [2], the IC50 amounted to 0.8 nM.
For `CNc1cc(-c2ccc3cc(C#N)cnn23)ncc1-c1nnc([C@H]2CC[C@H](NC(=O)C3CCN(c4cccc5c4C(=O)N(C4CCC(=O)NC4=O)C5=O)CC3)CC2)s1` (stereo partly shown) [Example 139, N-((1r,4r)-4-(5-(6-(3-cyanopyrrolo[1,2-b]pyridazin-7-yl)-4-(methylamino)pyridin-3-yl)-1,3,4-thiadiazol-2-yl)cyclohexyl)-1-(2-(2,6-dioxopiperidin-3-yl)-1,3-dioxoisoindolin-4-yl)piperidine-4-carboxamide], the Dmax at IRAK4 [1] was 24%. Besides, at IRAK4 [1] (Table 5), the DC50 was found to be 10.6 nM. On IRAK4 [2], the IC50 is 0.9 nM.
Regarding `CNc1cc(-c2ccc3cc(C#N)cnn23)ncc1-c1nnc(C23CCC(NC(=O)C[C@H](NC(=O)[C@@H]4C[C@@H](O)CN4C(=O)[C@@H](NC(=O)C4(F)CC4)C(C)(C)C)c4ccc(-c5scnc5C)cc4)(CC2)CC3)s1` [Example 140, (2S,4R)—N—((S)-3-((4-(5-(6-(3-cyanopyrrolo[1,2-b]pyridazin-7-yl)-4-(methylamino)pyridin-3-yl)-1,3,4-thiadiazol-2-yl)bicyclo[2.2.2]octan-1-yl)amino)-1-(4-(4-methylthiazol-5-yl)phenyl)-3-oxopropyl)-1-((S)-2-(1-fluorocyclopropane-1-carboxamido)-3,3-dimethylbutanoyl)-4-hydroxypyrrolidine-2-carboxamide], at IRAK4 [1], the Dmax was found to be 111%. At IRAK4 [1] (Table 5), the DC50 worked out at 88.9 nM. Also, at IRAK4 [2], the IC50 was determined as 2.3 nM.
For `CNc1cc(-c2ccc3cc(C#N)cnn23)ncc1-c1nnc(C23CCC(NC(=O)CCCC(=O)N[C@H](C(=O)N4C[C@H](O)C[C@H]4C(=O)NCc4ccc(-c5scnc5C)cc4)C(C)(C)C)(CC2)CC3)s1` [Example 141, N1-(4-(5-(6-(3-cyanopyrrolo[1,2-b]pyridazin-7-yl)-4-(methylamino)pyridin-3-yl)-1,3,4-thiadiazol-2-yl)bicyclo[2.2.2]octan-1-yl)-N5-((S)-1-((2S,4R)-4-hydroxy-2-((4-(4-methylthiazol-5-yl)benzyl)carbamoyl)pyrrolidin-1-yl)-3,3-dimethyl-1-oxobutan-2-yl)glutaramide], in that order: 133%, 1910 nM and 1.4 nM.
For `CNc1cc(-c2ccc3cc(C#N)cnn23)ncc1-c1nnc(N2CCN(C3CCN(Cc4ccc(C(=O)NC5CCC(=O)NC5=O)cc4)CC3)CC2)s1` (stereo not shown) [Example 145, 4-((4-(4-(5-(6-(3-cyanopyrrolo[1,2-b]pyridazin-7-yl)-4-(methylamino)pyridin-3-yl)-1,3,4-thiadiazol-2-yl)piperazin-1-yl)piperidin-1-yl)methyl)-N-(2,6-dioxopiperidin-3-yl)benzamide], in that order: 49%, 109 nM and 1.8 nM.
For `CNc1cc(-c2ccc3cc(C#N)cnn23)ncc1-c1nnc(N2CCC(NC(=O)C[C@H](NC(=O)[C@@H]3C[C@@H](O)CN3C(=O)[C@@H](NC(=O)C3(F)CC3)C(C)(C)C)c3ccc(-c4scnc4C)cc3)CC2)s1` [Example 146, (2S,4R)—N—((S)-3-((1-(5-(6-(3-cyanopyrrolo[1,2-b]pyridazin-7-yl)-4-(methylamino)pyridin-3-yl)-1,3,4-thiadiazol-2-yl)piperidin-4-yl)amino)-1-(4-(4-methylthiazol-5-yl)phenyl)-3-oxopropyl)-1-((S)-2-(1-fluorocyclopropane-1-carboxamido)-3,3-dimethylbutanoyl)-4-hydroxypyrrolidine-2-carboxamide], in that order: 77%, 231 nM and 2.9 nM.
For the molecule `CNc1cc(-c2ccc3cc(C#N)cnn23)ncc1-c1nnc([C@H]2CC[C@H](NC(=O)CN3CCN(c4ccc5c(c4)C(=O)N(C4CCC(=O)N(C)C4=O)C5=O)CC3)CC2)s1` (stereo partly shown) [Example 148, N-((1r,4r)-4-(5-(6-(3-cyanopyrrolo[1,2-b]pyridazin-7-yl)-4-(methylamino)pyridin-3-yl)-1,3,4-thiadiazol-2-yl)cyclohexyl)-2-(4-(2-(1-methyl-2,6-dioxopiperidin-3-yl)-1,3-dioxoisoindolin-5-yl)piperazin-1-yl)acetamide], the DC50 at IRAK4 [1] (Table 5) was > 9980 nM. Besides, on IRAK4 [2], the IC50 stood at 1.4 nM.

The values above are taken from patent US12528814B2, “Bifunctional degraders of interleukin-1 receptor-associated kinases and therapeutic use thereof” (NURIX THERAPEUTICS, INC., priority 2020, dated 2026).
